SMILES strings stand for the structures.

This assay deals with T1, human O-GlcNAc-β-N-acetylglucosaminidase (OGA) (Homo sapiens, UniProt O60502).
T1 construct: poly-histidine (HIS) tag (N); made in house; host or cells: Sf9 insect cells (Bac-to-Bac baculovirus, pFastBac1)
T1 sequence (O60502 1-916): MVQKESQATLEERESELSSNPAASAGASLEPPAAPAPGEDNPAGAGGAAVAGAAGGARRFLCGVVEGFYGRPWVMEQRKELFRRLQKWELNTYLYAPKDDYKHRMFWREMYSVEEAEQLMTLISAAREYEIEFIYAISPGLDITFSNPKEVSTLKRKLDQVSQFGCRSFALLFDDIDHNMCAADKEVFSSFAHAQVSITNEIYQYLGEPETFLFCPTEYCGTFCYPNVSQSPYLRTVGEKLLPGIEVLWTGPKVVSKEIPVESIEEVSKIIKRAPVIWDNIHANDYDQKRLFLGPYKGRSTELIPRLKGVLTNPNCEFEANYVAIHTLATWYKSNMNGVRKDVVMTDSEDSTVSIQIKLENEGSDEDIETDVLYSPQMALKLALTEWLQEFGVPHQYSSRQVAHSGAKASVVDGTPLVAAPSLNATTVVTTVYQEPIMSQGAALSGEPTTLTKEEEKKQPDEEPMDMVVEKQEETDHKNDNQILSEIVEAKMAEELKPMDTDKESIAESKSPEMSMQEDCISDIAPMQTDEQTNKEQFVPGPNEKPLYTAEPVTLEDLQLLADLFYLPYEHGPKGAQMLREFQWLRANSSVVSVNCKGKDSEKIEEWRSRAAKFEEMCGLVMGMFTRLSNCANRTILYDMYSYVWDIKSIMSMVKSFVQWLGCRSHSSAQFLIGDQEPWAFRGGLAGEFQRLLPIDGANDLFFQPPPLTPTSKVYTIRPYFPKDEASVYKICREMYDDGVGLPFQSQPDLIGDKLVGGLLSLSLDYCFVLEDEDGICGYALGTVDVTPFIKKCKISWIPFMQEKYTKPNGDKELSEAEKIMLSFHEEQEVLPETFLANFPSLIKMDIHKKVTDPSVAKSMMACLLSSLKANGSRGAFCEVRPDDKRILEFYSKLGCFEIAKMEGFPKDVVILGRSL
Nature of the assay: In Vitro Human OGA Enzyme Assay. Particulars: FD-GlcNAc substrate 6.7 μM; 30 min pre-incubation with OGA enzyme; 60 min at room temperature; pH 7; n=3. The assay is classed as biochemical. Here is the method: In Vitro Human OGA Enzyme Assay
The nucleotide sequence encoding full-length human O-GlcNAc-β-N-acetylglucosaminidase (NM_012215) is inserted into pFastBac1 (Invitrogen) vector with an N-terminal poly-histidine (HIS) tag. Baculovirus generation is carried out according to the Bac-to-Bac Baculovirus Expression system (Invitrogen) protocol. Sf9 cells are infected at 1.5×10^6 cells/mL using 10 mL of P1 virus per Liter of culture and incubated at 28° C. for 48 hrs. Cells are spun down, rinsed with PBS and the pellets stored at −80° C. […]
Resin is then packed onto column and washed with 50 mM Tris, pH 8.0, 300 mM NaCl, 10% glycerol, 10 mM imidazole, 0.1% Triton™ X-100, 1 mM DTT, followed by 50 mM Tris, pH 8.0, 150 mM NaCl, 10 mM imidazole, 10% glycerol, 1 mM DTT. […] Fractions containing His-OGA are pooled and protein concentration measured with BCA ([…]).
The OGA enzyme catalyses the removal of O-GlcNAc from nucleocytoplasmic proteins. […] This fluorogenic substrate becomes fluorescent upon cleavage by OGA, so that the enzyme activity can be measured by the increase in fluorescence detected at 535 nm (excitation at 485 nm).
The assay buffer is prepared to give a final concentration of 50 mM […], 0.01% bovine serum albumin and 0.01% Triton™ X-100 in water, at pH 7. […] Then, without stopping the reaction, fluorescence is read. […]

For `CC(=O)Nc1nc(F)c(CN2CC[C@H](Oc3cnc(C#N)cn3)C[C@@H]2C)s1` [Example 1, N-[5-[[(2S,4S)-4-(5-cyanopyrazin-2-yl)oxy-2-methyl-1-piperidyl]methyl]-4-fluoro-thiazol-2-yl]acetamide], the IC50 is 0.343 nM. In other words, the sub-nanomolar range.
